Test results taken from the supplement of paper PMC10627819.

Tests used:
Assay in all cases: Bliss interaction score (quartile over a dose matrix) (fitness difference); higher = more antagonism (negative = synergy)
S. aureus Newman = system: S. aureus Newman
Method in brief: (§1)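 Fitness was defined as normalised growth: OD595 at the start of stationary phase divided by the plate's robust no-drug mean and capped at 1. Single-drug fitness was inferred from combination measurements. The Bliss score is observed fitness minus the product of the single-drug values, summarised by quartiles across technical, biological and donor/recipient replicates.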

S. pneumoniae D39V = system: S. pneumoniae D39V
Method in brief: as §1

B. subtilis 168 = system: B. subtilis 168
Method in brief: as §1

S. aureus DSM 20231 = system: S. aureus DSM 20231
Method in brief: as §1
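Note: first quartile when negative (synergy) and third quartile when positive (antagonism).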

| SMILES | Bliss interaction score (S. aureus Newman) | Bliss interaction score (S. pneumoniae D39V) | Bliss interaction score (B. subtilis 168) | Bliss interaction score (S. aureus DSM 20231) |
| --- | --- | --- | --- | --- |
| CC1=C(C(=O)O)N2C(=O)[C@@H](NC(=O)[C@H](N)c3ccccc3)[C@H]2SC1 [Cephalexin] + CC[C@H]1OC(=O)[C@H](C)[C@@H](O[C@H]2C[C@@](C)(OC)[C@@H](O)[C@H](C)O2)[C@H](C)[C@@H](O[C@@H]2O[C@H](C)C[C@H](N(C)C)[C@H]2O)[C@](C)(O)C[C@@H](C)C(=O)[C@H](C)[C@@H](O)[C@]1(C)O [Erythromycin] | 0.0826 | 0.0656 | -0.0405 | -0.0356 |
| CC1=C(C(=O)O)N2C(=O)[C@@H](NC(=O)[C@H](N)c3ccccc3)[C@H]2SC1 [Cephalexin] + CC[C@H]1OC(=O)[C@H](C)[C@@H](O[C@H]2C[C@@](C)(OC)[C@@H](O)[C@H](C)O2)[C@H](C)[C@@H](O[C@@H]2O[C@H](C)C[C@H](N(C)C)[C@H]2O)[C@](C)(OC)C[C@@H](C)C(=O)[C@H](C)[C@@H](O)[C@]1(C)O [Clarithromycin] | 0.0874 | 0.0361 | 0.0576 | 0.0663 |
| CC1=C(C(=O)O)N2C(=O)[C@@H](NC(=O)[C@H](N)c3ccccc3)[C@H]2SC1 [Cephalexin] + CN(C)[C@@H]1C(O)=C(C(N)=O)C(=O)[C@@]2(O)C(O)=C3C(=O)c4c(O)ccc(Cl)c4[C@@](C)(O)[C@H]3C[C@@H]12 [Clortetracycline] | 0.104 | 0.0348 | 0.0862 | 0.0869 |
| CC1=C(C(=O)O)N2C(=O)[C@@H](NC(=O)[C@H](N)c3ccccc3)[C@H]2SC1 [Cephalexin] + CN[C@H](CC(C)C)C(=O)N[C@H]1C(=O)N[C@@H](CC(N)=O)C(=O)N[C@H]2C(=O)N[C@H]3C(=O)N[C@H](C(=O)N[C@H](C(=O)O)c4cc(O)cc(O)c4-c4cc3ccc4O)[C@H](O[C@H]3C[C@](C)(N)[C@@H](O)[C@H](C)O3)c3ccc(c(Cl)c3)Oc3cc2cc(c3O[C@@H]2O[C@H](CO)[C@@H](O)[C@H](O)[C@H]2O[C@H]2C[C@](C)(NCc3ccc(-c4ccc(Cl)cc4)cc3)[C@@H](O)[C@H](C)O2)Oc2ccc(cc2Cl)[C@H]1O [Oritavancin] | 0.104 | 0.069 | 0.0217 | 0.0767 |
| CC1=C(C(=O)O)N2C(=O)[C@@H](NC(=O)[C@H](N)c3ccccc3)[C@H]2SC1 [Cephalexin] + CO[C@@]12[C@H](COC(N)=O)C3=C(C(=O)C(C)=C(N)C3=O)N1C[C@@H]1N[C@@H]12 [MitomycinC] | 0.0613 | -0.0789 | -0.0415 | 0.0608 |
| CC1=C(C(=O)O)N2C(=O)[C@@H](NC(=O)[C@H](N)c3ccccc3)[C@H]2SC1 [Cephalexin] + COc1cccc2c1C(=O)c1c(O)c3c(c(O)c1C2=O)C[C@@](O)(C(=O)CO)C[C@@H]3O[C@H]1C[C@H](N)[C@H](O)[C@H](C)O1 [Doxorubicin] | -0.0552 | -0.111 | 0.084 | 0.0343 |
| CC1=C(C(=O)O)N2C(=O)[C@@H](NC(=O)[C@H](N)c3ccccc3)[C@H]2SC1 [Cephalexin] + C[C@@H]1O[C@@H]1P(=O)(O)O [Fosfomycin] | 0.134 | -0.111 | -0.0491 | 0.038 |
| CC1=C(C(=O)O)N2C(=O)[C@@H](NC(=O)[C@H](N)c3ccccc3)[C@H]2SC1 [Cephalexin] + C[C@@H](O)[C@H]1C(=O)N2C(C(=O)O)=C(SCCNC=N)C[C@H]12 [Imipenem] | -0.0579 | -0.237 | -0.104 | 0.0677 |
| CC1=C(C(=O)O)N2C(=O)[C@@H](NC(=O)[C@H](N)c3ccccc3)[C@H]2SC1 [Cephalexin] + C[C@H]1COc2c(N3CCN(C)CC3)c(F)cc3c(=O)c(C(=O)O)cn1c23 [Levofloxacin] | 0.0499 | -0.152 | -0.0126 | -0.037 |
| CC1=C(C(=O)O)N2C(=O)[C@@H](NC(=O)[C@H](N)c3ccccc3)[C@H]2SC1 [Cephalexin] + C[C@H]1c2cccc(O)c2C(=O)C2=C(O)[C@]3(O)C(=O)C(C(N)=O)=C(O)[C@@H](N(C)C)[C@@H]3[C@@H](O)[C@@H]21 [Doxycycline] | 0.0562 | 0.183 | -0.0302 | 0.0912 |
| CC1=C(C(=O)O)N2C(=O)[C@@H](NC(=O)[C@H](N)c3ccccc3)[C@H]2SC1 [Cephalexin] + N[C@@H]1CONC1=O [CycloserineD] | -0.0487 | -0.117 | -0.0367 | 0.0763 |
| CC1=C(C(=O)O)N2C(=O)[C@@H](NC(=O)[C@H](N)c3ccccc3)[C@H]2SC1 [Cephalexin] + O=C(N[C@H](CO)[C@H](O)c1ccc([N+](=O)[O-])cc1)C(Cl)Cl [Chloramphenicol] | 0.0789 | 0.113 | -0.069 | 0.0832 |
| CC1=C(C(=O)O)N2C(=O)[C@@H](NC(=O)[C@H](N)c3ccccc3)[C@H]2SC1 [Cephalexin] + O=C(O)[C@H]1/C(=C/CO)O[C@@H]2CC(=O)N21 [Clavulanic] | -0.0674 | -0.14 | -0.0461 | 0.0895 |
| CC1=C(C(=O)O)N2C(=O)[C@@H](NC(=O)[C@H](N)c3ccccc3)[C@H]2SC1 [Cephalexin] + O=C(O)c1cn(C2CC2)c2cc(N3CCNCC3)c(F)cc2c1=O [Ciprofloxacin] | 0.067 | -0.138 | -0.084 | 0.0694 |
| CC1=C(C(=O)O)N2C(=O)[C@@H](NC(=O)[C@H](N)c3ccccc3)[C@H]2SC1 [Cephalexin] + O=C(O[C@@H]1Cc2c(O)cc(O)cc2O[C@@H]1c1cc(O)c(O)c(O)c1)c1cc(O)c(O)c(O)c1 [EGCG] | -0.115 | 0.0582 | -0.0668 | -0.071 |
| CC1=C(C(=O)O)N2C(=O)[C@@H](NC(=O)[C@H](N)c3ccccc3)[C@H]2SC1 [Cephalexin] + Oc1cc(Cl)ccc1Oc1ccc(Cl)cc1Cl [Triclosan] | 0.024 | 0.0582 | 0.0637 | 0.0867 |
